Results published in ChEMBL document CHEMBL1153243, “Structure and property based design of factor Xa inhibitors: pyrrolidin-2-ones with monoaryl P4 motifs” (Bioorg Med Chem Lett, 2010).

Experiments:
Type in all cases: ADME, organism-based
[1] = Oral bioavailability in Sprague-Dawley rat; details: in vivo
[2] = Plasma clearance in Sprague-Dawley rat
[3] = Half life in Sprague-Dawley rat; details: in vivo
[4] = Volume of distribution at steady state in Sprague-Dawley rat; details: in vivo, read-out: Vdss

CN[C@@H](C)c1ccc(N2CC[C@H](NS(=O)(=O)c3ccc4cc(Cl)ccc4c3)C2=O)c(F)c1
bioavailability [1]: > 15%
clearance [2]: 3.1 mL/min/kg
half-life [3]: 15 h
Vd [4]: 3.3 L/kg

C[C@@H](c1ccc(N2CC[C@H](NS(=O)(=O)/C=C/c3ccc(Cl)s3)C2=O)c(F)c1)N(C)C
bioavailability [1]: 23%
clearance [2]: 4.3 mL/min/kg
half-life [3]: 1.6 h
Vd [4]: 0.53 L/kg

CN[C@H](C)c1ccc(N2CC[C@H](NS(=O)(=O)c3ccc4cc(Cl)ccc4c3)C2=O)c(F)c1
bioavailability [1]: > 10%
clearance [2]: 1.6 mL/min/kg
half-life [3]: 18 h
Vd [4]: 2.4 L/kg

C[C@@H](c1ccc(N2CC[C@H](NS(=O)(=O)c3ccc4cc(Cl)ccc4c3)C2=O)c(F)c1)N(C)C
bioavailability [1]: 81%
clearance [2]: 13 mL/min/kg
half-life [3]: 2.1 h
Vd [4]: 1.8 L/kg

CC(c1ccc(N2CC[C@H](NS(=O)(=O)c3cc4ccc(Cl)cc4s3)C2=O)c(F)c1)N(C)C (stereo partly drawn)
bioavailability [1]: 10%
clearance [2]: 2.1 mL/min/kg
half-life [3]: 3.1 h
Vd [4]: 0.52 L/kg

C[C@H](c1ccc(N2CC[C@H](NS(=O)(=O)/C=C/c3ccc(Cl)s3)C2=O)c(F)c1)N(C)C
bioavailability [1]: 54%
clearance [2]: 7.5 mL/min/kg
half-life [3]: 1.3 h
Vd [4]: 0.66 L/kg

C[C@H](c1ccc(N2CC[C@H](NS(=O)(=O)c3ccc4cc(Cl)ccc4c3)C2=O)c(F)c1)N(C)C
bioavailability [1]: 43%
clearance [2]: 8 mL/min/kg
half-life [3]: 2.6 h
Vd [4]: 1.3 L/kg
